In patent publication US12696902B2, “Pesticidal pyrazole and triazole derivatives” (priority 2019, dated 2026) one finds mortality data, which are given here for 5 compounds.

A word on the mortality: it is the share of the test organisms that died.

Molecules are shown by their SMILES.

Holding throughout (format): in vivo
The test system of assay [1] is Southern Armyworm (Spodoptera eridania), 2nd Instar Larvae. Kind of assay: Action on southern armyworm 2nd instar larvae on sprayed lima bean plants. The following applies: 96 h, 4 days after treatment, read-out: mortality in comparison with untreated controls. The method, then:
The active compounds were formulated by a Tecan liquid handler in 100% cyclohexanone as a 10,000 ppm solution supplied in tubes. The 10,000 ppm solution was serially diluted in 100% cyclohexanone to make interim solutions. These served as stock solutions for which final dilutions were made by the Tecan in 50% acetone:50% water (v/v) into 10 or 20 ml glass vials. A nonionic surfactant (Kinetic®) was included in the solution at a volume of 0.01% (v/v). The vials were then inserted into an automated electrostatic sprayer equipped with an atomizing nozzle for application to plants/insects.
Lima bean plants (variety Sieva) were grown 2 plants to a pot and selected for treatment at the 1st true leaf stage. Test solutions were sprayed onto the foliage by an automated electrostatic plant sprayer equipped with an atomizing spray nozzle. The plants were dried in the sprayer fume hood and then removed from the sprayer. Each pot was placed into perforated plastic bags with a zip closure. About 10 to 11 armyworm larvae were placed into the bag and the bags zipped closed. Test plants were maintained in a growth room at about 25° C. and about 20-40% relative humidity for 4 days, avoiding direct exposure to fluorescent light (24 hour photoperiod) to prevent trapping of heat inside the bags. Mortality and reduced feeding were assessed 4 days after treatment, compared to untreated control plants.

Assay [2] concerns Boll Weevil (Anthonomus grandis). Kind of assay: Action on boll weevil, egg and larval mortality on insect diet in microtiter plates. The following applies: 120 h, A. grandis eggs on insect diet, egg and larval mortality after 5 days, read-out: mortality in comparison with untreated controls. The protocol: For evaluating control of boll weevil (Anthonomus grandis) the test unit consisted of 96-well-microtiter plates containing an insect diet and 5-10 A. grandis eggs.
The compounds were formulated using a solution containing 75% (v/v) water and 25% (v/v) DMSO. Different concentrations of formulated compounds were sprayed onto the insect diet at 5 μl, using a custom built micro atomizer, at two replications.
After application, microtiter plates were incubated at about 25+1° C. and about 75+5% relative humidity for 5 days. Egg and larval mortality were then visually assessed.

The test system of assay [3] is Yellow Fever Mosquito (Aedes aegypti). Kind of assay: whole plant or invertebrate. The following applies: 48 h, freshly hatched A. aegypti larvae, larval mortality visually assessed after 2 days, read-out: mortality in comparison with untreated controls. The protocol:
For evaluating control of yellow fever mosquito (Aedes aegypti) the test unit consisted of 96-well-microtiter plates containing 200 μl of tap water per well and 5-15 freshly hatched A. aegypti larvae.
The active compounds or mixtures were formulated using a solution containing 75% (v/v) water and 25% (v/v) DMSO. Different concentrations of formulated compounds or mixtures were sprayed onto the insect diet at 2.5 μl, using a custom built micro atomizer, at two replications. For experimental mixtures in these tests identical volumes of both mixing partners at the desired concentrations respectively, were mixed together.
After application, microtiter plates were incubated at 28±1° C., 80±15% RH for 2 days. Larval mortality was then visually assessed.

Assay [4] has as its system Diamond Back Moth (Plutella xylostella). The assay can be described thus: Action on diamond back moth, cabbage leaf dip. To be noted: foliar, 3rd instar larvae on dipped cabbage leaves, 72 hours after treatment, read-out: mortality in comparison with untreated controls. The protocol: The active compound is dissolved at the desired concentration in a mixture of 1:1 (v/v) distilled water:acetone. Surfactant (Kinetic® HV) is added at a rate of 0.01% (v/v). The test solution is prepared at the day of use.
Leaves of cabbage were dipped in test solution and air-dried. Treated leaves were placed in petri dishes lined with moist filter paper and inoculated with ten 3rd instar larvae. Mortality was recorded 72 hours after treatment. Feeding damages were also recorded using a scale of 0-100%.

Assay [5] concerns Tobacco Budworm (Heliothis virescens). The assay can be described thus: Action on tobacco budworm, egg and larval mortality on insect diet in microtiter plates. The following applies: 120 h, H. virescens eggs on insect diet, egg and larval mortality after 5 days, read-out: mortality in comparison with untreated controls. The protocol: For evaluating control of tobacco budworm (Heliothis virescens) the test unit consisted of 96-well-microtiter plates containing an insect diet and 15-25 H. virescens eggs.
The compounds were formulated using a solution containing 75% v/v water and 25% v/v DMSO. Different concentrations of formulated compounds were sprayed onto the insect diet at 10 μl, using a custom built micro atomizer, at two replications.
After application, microtiter plates were incubated at about 28+1° C. and about 80+5% relative humidity for 5 days. Egg and larval mortality were then visually assessed.

For assay [6], the system named is Orchid Thrips (Dichromothrips corbetti). Kind of assay: Action on orchid thrips, floral-immersion technique. The following applies: adult thrips, 72 hours after treatment, read-out: mortality in comparison with untreated controls. The protocol:
Dichromothrips corbetti adults used for bioassay were obtained from a colony maintained continuously under laboratory conditions. For testing purposes, the test compound is diluted in a 1:1 mixture of acetone:water (vol:vol), plus Kinetic® HV at a rate of 0.01% v/v.
Thrips potency of each compound was evaluated by using a floral-immersion technique. All petals of individual, intact orchid flowers were dipped into treatment solution and allowed to drying Petri dishes. Treated petals were placed into individual re-sealable plastic along with about 20 adult thrips. All test arenas were held under continuous light and a temperature of about 28° C. for duration of the assay. After 3 days, the numbers of live thrips were counted on each petal. The percent mortality was recorded 72 hours after treatment.

Turning to `Cc1cc(/C=N/N2C(=O)CS/C2=N\c2ccccc2C(C)C)ccc1-n1cc(NC(=O)c2ccc(OC(F)(F)F)cc2)c(C)n1` [Compound C-11, N-[1-[4-[(E)-[(2Z)-2-(2-isopropylphenyl)imino-4-oxo-thiazolidin-3-yl]iminomethyl]-2-methyl-phenyl]-3-methyl-pyrazol-4-yl]-4-(trifluoromethoxy)benzamide], the mortality at 300 ppm in assay [1] is at least 75%. The mortality at 800 ppm was at least 75% in assay [2], at least 50% in assay [3] and at least 75% in assay [5]. Besides, the mortality at 500 ppm in assay [4] is at least 75%.

In the case of `Cc1nn(-c2ccc(/C=N/NC(=S)Nc3ccccc3C(C)C)cc2)cc1NC(=O)c1ccc2c(c1)OC(F)(F)O2` [Compound C-16, 2,2-difluoro-N-[1-[4-[(E)-[(2-isopropylphenyl)carbamothioylhydrazono]methyl]phenyl]-3-methyl-pyrazol-4-yl]-1,3-benzodioxole-5-carboxamide], in assay [1], the mortality at 300 ppm was at least 75%. Moreover, the mortality at 500 ppm in assay [6] and in assay [4] was at least 75% each time. In addition, the mortality at 800 ppm in assay [2] is at least 75%; in assay [3], at least 50%; in assay [5], at least 75%.

`Cc1nn(-c2ccc(/C=N/N=C3\SCC(=O)N3c3ccccc3C(C)C)cc2)cc1NC(=O)c1ccc2c(c1)OC(F)(F)O2` [Compound C-17, 2,2-difluoro-N-[1-[4-[(E)-[(Z)-[3-(2-isopropylphenyl)-4-oxo-thiazolidin-2-ylidene]hydrazono]methyl]phenyl]-3-methyl-pyrazol-4-yl]-1,3-benzodioxole-5-carboxamide]: in assay [1], the mortality at 300 ppm is at least 75%. Also, the values for the mortality at 800 ppm in assay [2], in assay [3] and in assay [5] were at least 75%, at least 50% and at least 75%, respectively. The mortality at 500 ppm in assay [4] is at least 75%.

`Cc1nn(-c2ccc(/C=N/NC(=S)Nc3ccccc3C(C)C)cc2)cc1C(=N)Nc1ccc(OC(F)(F)F)cc1` [Compound C-52, 1-(2-isopropylphenyl)-3-[(E)-[4-[3-methyl-4-[N-[4-(trifluoromethoxy)phenyl]carbamimidoyl]pyrazol-1-yl]phenyl]methyleneamino] thiourea]: in assay [1], the mortality at 300 ppm is at least 75%. Also, the mortality at 500 ppm in assay [6] and in assay [4] was at least 75% each time. In addition, the mortality at 800 ppm is at least 75% in assay [2], at least 50% in assay [3] and at least 75% in assay [5].

In the case of `Cc1nn(-c2ccc(/C=N/N3C(=O)CS/C3=N\c3ccccc3C(C)C)cc2)cc1C(=N)Nc1ccc(OC(F)(F)F)cc1` [Compound C-53, 1-[4-[(E)-[(2Z)-2-(2-isopropylphenyl)imino-4-oxo-thiazolidin-3-yl]iminomethyl]phenyl]-3-methyl-N-[4-(trifluoromethoxy)phenyl]pyrazole-4-carboxamidine], the mortality at 300 ppm in assay [1] is at least 75%. Besides, the mortality at 800 ppm was at least 75% in assay [2], at least 50% in assay [3] and at least 75% in assay [5]. The mortality at 500 ppm in assay [4] was at least 75%.
